Assay results published in PMC10334834, “A de novo dual-targeting supramolecular self-assembly peptide against pulmonary metastasis of melanoma” (Theranostics, 2023).
Entries after “also recorded” stand apart in the source; their conditions may differ. Where two headings read alike, the source gives them in different places.

Legend:
B16F10 cells [1] = experiment: Cell viability, Alamar blue
Procedure: (§9) To explore the antitumor properties of HBB^plus@CA at the cellular level, we measured the viability of B16F10 cells after treatment with HBB^plus@CA.
(§10) Mouse melanoma cell line B16F10, mouse macrophage cell line RAW 264.7, and human leukemic
(§11) T-cell line Jurkat were obtained from the Chinese Academy of Science Cell Bank (Shanghai, China).
(§12) B16F10 and RAW 264.7 cells were maintained in DMEM medium, Jurkat was cultured in RPMI-
(§13) 1640 medium, and the above mediums were supplemented with 10% FBS, 100 U/mL penicillin,
(§14) and 100 μg/mL streptomycin. All cells were maintained at 37°C in an atmosphere of 5% CO2.
(§15) Melanoma cells B16F10 were inoculated uniformly in 96 empty plates according to 2000 cells.
(§16) After 24 h, different gradient concentrations of HBB plus@CA or CA, HBB, or RGDSP-X were
(§17) intervened at 37°C in an atmosphere of 5% CO 2 for 72 h. The in vitro cell viability was measured
(§18) using a standard Alamar blue (Thermo Fisher Scientific, China) assay in the B16F10 cell s.

[2] = tested on: Ki-67, β-catenin, np β-catenin, Cyclin D1, c-Myc, p-ERK1/2, N-cadherin, E-cadherin; experiment: Immunohistochemistry of tumor-bearing lung sections; conditions: 4 mg/kg, six cycles, score I × A, n = 5, control scored 8.3
Procedure: All samples were assayed in triplicate.
Construct a lung metastasis model of melanoma
The lung metastasis model o f melanoma was constructed as follows: B16F10 cells (5 × 10^5 cells per
100 µL) were transplanted into healthy C57BL/6 mice by intravenous injection at 5 -6 weeks of age.
After 3 days, the mice were randomly divided into the PBS control group, CA group (4 mg/kg),
HBBplus group (4 mg/kg), HBBplus@CA group (4 mg/ kg), HBBplus + CA group (4 mg/ kg) tail-vein
injected, every other day, summed six cycles. The experiment was terminated, and the mice were
euthanized. For histological examination, the tumor, liver, k idney, heart, spleen , and lung tissues
were fixed with formaldehyde, dehydrated, sliced into 4 μm sections, and subjected to H&E or
immunohistochemical staining.
H&E and immunohistochemistry (IHC) staining
Tumor-bearing lungs and primary organ tissues were dissected and immersed in formalin solution.
Then they were paraffin-embedded, sectioned with a 4 μm thick. Nextly, the sections were stained
with hematoxylin-eosin (H&E) according to standard histopathological techniques. Besides, under
conventional immunohistochemical staining, the expression of Ki -67 (Proteintech, USA; 1: 400),
β-catenin (Thermo Fisher, China; 1: 2000), np β-catenin (Cell Signaling Technology, USA; 1: 100), […]
1: 500) in tumor-bearing lungs sections were detected. […]

B16F10 cells [3] = tested on: B16F10 cells
Procedure: as §9, §10, §11, §12, §13, §14, §15, §16, §17, §18

[4] = tested on: β-catenin, np-β-catenin, c-Myc; experiment: Western blot, Wnt/β-catenin pathway proteins; type: cell-based, mouse; conditions: B16F10 cells, 24 h
[5] = tested on: B16F10 pulmonary metastasis of melanoma; experiment: Lung metastasis model of melanoma; type: in vivo; conditions: 5×10^5 B16F10 cells i.v., 4 mg/kg every other day, six cycles, day 24, n = 5, mean ± s.d.; PBS group 94 ± 41
B16F10 cells [6] = experiment: Cell clone formation assay; type: cell-based, mouse; conditions: 7 days of drug treatment
B16F10 cells [7] = experiment: Scratch wound healing assay; type: cell-based, mouse; conditions: 60 μM, 24 h, 1% FBS; for migration rate: Image J, triplicate
Procedure: (§1) As a next step, we tested the ability of supramolecular peptides to prevent tumor cell migration and invasion. […] Meanwhile, a scratch wound was harvested as part of the migration assay, and the healing process was observed. Based on a digital image, the areas of scratching without cells immediately following scratching and those of scratching without cells after the assay was calculated. […] We observed the same results in the transwell migration assay. Furthermore, tumor cells' invasive abilities play a critical role in metastasis. Using a transwell invasion assay (Figure 4G), we assessed the ability of HBB^plus@CA to inhibit tumor cell invasion.
(§2) Scratch wound healing assay […]
(§3) monolayer with a pipette tip (100 μL). The monolayer membrane was washed with PBS three times, […]
(§4) Detection Kit (BD Falco, China). […]
(§5) for 24 h at a concentration of 40 μM.
(§6) FITC-labeled HBB, HBBplus, and […]
(§7) it for 10 min. […] DAPI (Sigma-Aldrich,
(§8) Finally, a super-resolution confocal microscope was used to observe the cell uptake situation.

[8] = Acute toxicity test in vivo; conditions: healthy C57BL/6 mice; for body weight: every other day, six cycles
B16F10 cells [9] = experiment: Transwell migration and invasion assays; type: cell-based, mouse; conditions: 30 μM, 24h-48h
Procedure: as §1
performed on a Talos F200X.
The hydrodynamic size distribution (1
Zetasizer Nano ZS system). The surface chemical structure of modified nanocrystals was evaluated
(Shimadzu 3000 spectrophotometer). The structural identification of modified nanocrystals was
and 100 μg/mL streptomycin.
The in vitro cell viability was measured
containing 15% FBS medium for 24h -48h. Cells that migrated or invaded across the membrane

[10] = Self-assembly into nanospheres observed by TEM; type: physicochemical; conditions: peptide alone without CA
Description: The hydrophobic tails of HBB^plus interact and gather together, forming a hydrophobic core. At the same time, the hydrophilic head interacts with water molecules to wrap around the core, forming a stable micelle structure. The hydrophobic drug CA will be encapsulated in the hydrophobic area of the micelles during micellar assembly. CA is immobilized inside the micelles by interacting with the hydrophobic tails of the micelles (hydrophobic interactions and hydrogen bonding) (Figure 1D). We used the GROMACS 2018.3 software package and combined it with the MARTINI coarse-grained model (version 2.2) to conduct dynamics simulations on a system composed of 24× HBB^plus peptide molecules and 100× CA molecules in an aqueous solution during 5000 ns. […] To verify it, CA was mixed with HBB^plus in mass ratios ranging from 4:1 to 0.25:1. […] Furthermore, there was a strong positive correlation between the concentration of CA and particle size (Figure 1E). […]
Zetasizer Nano ZS system). The surface chemical structure of modified nanocrystals was evaluated […]
The in vitro cell viability was measured […]

B16F10 lung metastasis = experiment: Ex vivo fluorescence biodistribution in mice with pulmonary metastatic melanoma; conditions: Cy5-SE labelled, i.v. 200 μL (1 mg/mL), tumor-bearing C57BL/6 mice, organs at 12 h and 24 h
B16F10 cells [11] = experiment: Cell apoptosis by flow cytometry (FITC Annexin V/PI); type: cell-based, mouse; conditions: 40 μM, 24 h
Procedure: as §2, §3, §4, §5, §6, §7, §8

p-ERK1/2 = experiment: Western blot, p-ERK1/2; type: cell-based, mouse; conditions: B16F10 cells

CC(C)c1cc2c(c(O)c1O)[C@@]1(C(=O)O)CCCC(C)(C)[C@@H]1CC2 [CA, carnosic acid]
IC50 (B16F10 cells [1]; Mus musculus, B16-F10, 72 h, read-out: IC50 (cell viability)): 29.2 ± 4.68 µM | Ki-67 expression score (IHC) [2]: 5.7 | cytotoxicity / antiproliferative activity (B16F10 cells [3]): concentration-dependent cytotoxicity | β-catenin, np-β-catenin and c-Myc protein expression [4]: significantly downregulated | number of metastatic lung foci [5]: 37 ± 10 per lung | clone formation (B16F10 cells [6]): significantly reduced the number of clones | migration rate (B16F10 cells [7]): ~ 27% | renal function tests (urea nitrogen, creatinine) ([8]; 4-40 mg/kg): did not cause severe nephrotoxicity | RBC, WBC, PLT, HGB, GRAN, Mon, Lymph in blood ([8]; 4-40 mg/kg, n = 3/group, versus controls): neither HBB^plus@CA nor CA affected | body weight ([8]; 5× doses (20 mg/kg)): notable weight loss | ALT and AST (liver function) ([8]; 10× doses (40 mg/kg)): elevations of ALT and AST | body weight ([8]; 10× doses (40 mg/kg)): notable weight loss | H&E staining of lung tissue ([8]; low-dose and high-dose groups): inflammatory cell infiltration | TNF-α, IFN-γ and EPO levels of peripheral blood ([8]; up to high dose, ELISA, n = 3/group): did not significantly increase

RGDSPENPRLLGNVLVCVLA [HBB^plus]
cytotoxicity / antiproliferative activity (B16F10 cells [1]; B16F10 cells, 72 h, Alamar blue): more potent antiproliferative activity | Ki-67 expression score (IHC) [2]: 6.2 | transwell migration and invasion (B16F10 cells [9]): inhibited the migration | self-assembly into nanospheres [10]: incapable of undergoing such a process | tumor accumulation (biodistribution) (B16F10 lung metastasis): superior tumor accumulation compared to HBB | number of metastatic lung foci [5]: 32 ± 12 per lung | apoptosis of tumor cells (B16F10 cells [11]): significantly effective in increasing the apoptosis | clone formation (B16F10 cells [6]): more potent antiproliferative activity | level of p-ERK1/2 (p-ERK1/2): reduced the level; also recorded: significantly down-regulated | migration in scratch assay (B16F10 cells [7]): inhibited the migration | migration rate (B16F10 cells [7]): ~ 36%
